US8591935B2, “Methods and compositions for treating pain comprising a statin” (Warsaw Orthopedic, Inc., priority 2008, dated 2013)

Assays:
[1] = test system: chronic constriction injury (CCI) rats; test: Mechanical allodynia: von Frey monofilament test in the chronic constriction injury model; assay type: in vivo, Wister rats
Description: This model may mimic pain associated with sciatica in humans. Twenty-eight male Wister rats (Charles River Laboratories, Wilmington, Mass.) weighing 300±26 g the day of surgery (Day 1) were used in this study. All experiments were conducted in accordance with the International Association for the Study of Pain guidelines and approved by the Institutional Animal Care and Use Committee at SRI International, Inc (Menlo Park, Calif.). CCI was induced according to the method of Bennett and Xie. Briefly, each animal was anesthetized by intraperitoneal (IP) injection of sodium pentobarbital at a dose of 60 mg/kg. The animal's common sciatic nerve was exposed and freed from adherent tissue at mid-thigh by separating the biceps femoris muscles by blunt dissection. Four loose ligatures were placed 1 mm apart, using chromic gut suture (4-0 absorbable suture; Jorgensen Laboratories, Inc., Loveland, Colo.). Seven animals were randomly assigned to each treatment group. Mechanical allodynia was measured using von Frey monofilaments (Stoelting, Wood Dale, Ill.) with varying stiffness (2.0-15.0 g) on Days −1 (baseline), 8, and 15 as described previously. Animals were placed on a perforated metallic platform and allowed to habituate to their surroundings for a minimum of 15 minutes before testing. The 50% paw withdrawal threshold response was determined by a sequential increasing and/or decreasing of the stimulus strength (the “up-down method” of Dixon). Each filament was applied with enough pressure to cause a buckling effect. Absence of a paw lifting/withdrawal response after 5 seconds prompted the use of the filament of next higher weight. Paw withdrawal indicating a positive response prompted the use of a weaker filament. After the initial response (i.e., paw withdrawal), the testing continued for four additional measurements and was used to calculate the response threshold. Four consecutive positive responses received a score of 0.25 g, and five consecutive negative responses (i.e., no paw withdrawal) received a score of 15 g. The 50% paw withdrawal threshold was calculated using the formula: 10 (Xf+kd)/10,000, where Xf is the final von Frey filament used (log units), k is a value that analyzes the response pattern (taken from the table published by Chaplan et al.), and d is the mean difference between stimuli (log units). The mean and standard error of the mean (SEM) were determined for each treatment group.

[2] = test system: chronic constriction injury (CCI) rats; test: Thermal hyperalgesia: paw withdrawal latency to thermal radiant heat (Hargreaves test) in the chronic constriction injury model; assay type: in vivo, Wister rats
Description: This model may mimic pain associated with sciatica in humans. Twenty-eight male Wister rats (Charles River Laboratories, Wilmington, Mass.) weighing 300±26 g the day of surgery (Day 1) were used in this study. All experiments were conducted in accordance with the International Association for the Study of Pain guidelines and approved by the Institutional Animal Care and Use Committee at SRI International, Inc (Menlo Park, Calif.). CCI was induced according to the method of Bennett and Xie. Briefly, each animal was anesthetized by intraperitoneal (IP) injection of sodium pentobarbital at a dose of 60 mg/kg. The animal's common sciatic nerve was exposed and freed from adherent tissue at mid-thigh by separating the biceps femoris muscles by blunt dissection. Four loose ligatures were placed 1 mm apart, using chromic gut suture (4-0 absorbable suture; Jorgensen Laboratories, Inc., Loveland, Colo.). Seven animals were randomly assigned to each treatment group. […] The radiant infrared heat source stimulus intensity was set to IR50 and the cut-off time was set at 15 seconds. Rats were placed on a glass platform and allowed to habituate to the testing chambers for a minimum of 15 minutes prior to each testing session. The thermal stimulus was applied to the plantar surface of the paw. Thermal thresholds were defined as the latency in seconds at the first pain behavior, which includes paw withdrawal, flinching, biting and/or licking of the stimulated paw. The readings for all animals were averaged and the mean and standard error of the mean (SEM) were determined for each treatment group.

[3] = sulindac 2 mg/kg/day IP for 15 days, CCI rats
[4] = lovastatin 0.3 mg/kg/day IP for 15 days, CCI rats
[5] = lovastatin 3 mg/kg/day IP for 15 days, CCI rats

| SMILES | pain reduction, von Frey paw withdrawal threshold (mechanical stimulation) vs PBS vehicle [1, 3] | pain reduction, von Frey paw withdrawal threshold (mechanical stimulation) vs PBS vehicle ([1]; sulindac 2 mg/kg/day IP, at 8 and 15 days) | pain reduction, paw withdrawal latency to thermal radiant heat vs PBS vehicle [2, 3] | pain reduction, paw withdrawal latency to thermal radiant heat vs PBS vehicle ([2]; sulindac 2 mg/kg/day IP, at 7 and 14 days) | mechanical allodynia pain behavioral response compared with the 0.3 mg/kg/day group ([1]; lovastatin 40 ng/hr group) | pain reduction, von Frey paw withdrawal threshold (mechanical stimulation) vs PBS vehicle [1, 4] | mechanical allodynia pain behavioral response ([1]; lovastatin 0.3 mg/kg/day, all time points) | pain reduction, von Frey paw withdrawal threshold (mechanical stimulation) vs PBS vehicle [1, 5] | pain reduction, von Frey paw withdrawal threshold (mechanical stimulation) vs PBS vehicle ([1]; lovastatin 3 mg/kg/day IP, at day 15) | mechanical allodynia pain response compared with 50:50 DMSO/PBS vehicle control ([1]; lovastatin 0.4 mcg/hr) | thermal hyperalgesia withdrawal score, course over the study ([2]; high dose lovastatin pump group, 0.4 mcg/hr) | thermal hyperalgesia withdrawal score compared with other statin groups ([2]; high dose lovastatin pump group, 0.4 mcg/hr, day 21) | pain reduction, paw withdrawal latency to thermal radiant heat vs PBS vehicle [2, 4] | thermal withdrawal time as % of per-operative baseline ([2]; lovastatin 0.3 mg/kg/day IP, Day 7) [%] | thermal hyperalgesia pain behavioral response vs 50:50 DMSO/PBS vehicle ([2]; lovastatin 0.3 mg/kg/day IP, all days tested) | thermal withdrawal time as % of per-operative baseline ([2]; lovastatin 0.3 mg/kg/day IP, days 14 and 21) [%] | pain reduction, paw withdrawal latency to thermal radiant heat vs PBS vehicle [2, 5] | pain reduction, paw withdrawal latency to thermal radiant heat vs PBS vehicle ([2]; lovastatin 3 mg/kg/day IP, at day 14) | thermal withdrawal scores as % of baseline ([2]; low dose lovastatin group (100-fold decrease from 0.3 mg/kg/day), all testing days) [%] |
| --- | --- | --- | --- | --- | --- | --- | --- | --- | --- | --- | --- | --- | --- | --- | --- | --- | --- | --- | --- |
| CC1=C(CC(=O)O)c2cc(F)ccc2/C1=C\c1ccc([S+](C)[O-])cc1 (stereo not shown) [sulindac] | effective at reducing pain | particularly effective | effective at reducing pain | particularly effective | – | – | – | – | – | – | – | – | – | – | – | – | – | – | – |
| CC[C@H](C)C(=O)O[C@H]1C[C@@H](C)C=C2C=C[C@H](C)[C@H](CC[C@@H]3C[C@@H](O)CC(=O)O3)[C@H]21 [lovastatin] | – | – | – | – | probably statistically equivalent | effective at reducing pain | able to reduce this pain behavioral response at all time points | effective at reducing pain | particularly effective | probably statistically equivalent to the vehicle control | steadily improved during the course of the study | statistically equivalent to the other two statin groups | effective at reducing pain | 68 | reduced this pain behavioral response at all days tested | 61 | effective at reducing pain | particularly effective | ~60 |
